The values that follow come from ChEMBL document CHEMBL1201862, “PubChem BioAssay data set” (2004).

SMILES strings stand for the structures.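 Interpolation was linear, between the two tested concentrations surrounding the appropriate level; five concentrations were tested over 48 hours in 96-well plates. GI50: concentration for 50% inhibition of growth.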 Activity calls are given as the source filed them. No stated cut-off is given here; in the data, active = GI50 up to about 1.1 µM and inactive = higher.

Among the test systems are IGROV-1; K562; CAKI-1; SN12C; LOX IMVI; TK-10; UACC-62; 786-0; A498; SF-295; HCT-116; NCI-H522; RPMI-8226; HOP-62; NCI/ADR-RES; M14; MDA-N; CCRF-CEM; SK-MEL-2; BT-549.
What all share (experiment): inhibition of tumour cell growth, NCI panel, 48 h

Take `CCOC(=O)N1c2ccccc2C(C)=CC(C)C1C` (stereo unspecified): the GI50 in the assay on IGROV-1 is 44 µM (inactive); with K562 it was 18.9 µM (inactive); in the assay on CAKI-1, 16.2 µM (inactive); in the assay with SN12C it was 40.7 µM (inactive); in the assay with LOX IMVI, 7.53 µM (inactive); in the assay with TK-10, 4.55 µM (inactive). In addition, the GI50 with UACC-62 was 32.6 µM (inactive); with 786-0 it was 20.6 µM (inactive); in the assay with A498, 27 µM (inactive); in the assay on SF-295, 23.9 µM (inactive); in the assay with HCT-116, 6.73 µM (inactive); in the assay with NCI-H522, 18.7 µM (inactive). Moreover, the GI50 is 56.8 µM (inactive) in the assay with RPMI-8226; 37.6 µM (inactive) in the assay with HOP-62; 25.8 µM (inactive) with NCI/ADR-RES; 13.6 µM (inactive) in the assay on M14; 1.32 µM (inactive) with MDA-N; 21.9 µM (inactive) in the assay with CCRF-CEM. Besides, the GI50 in the assay with SK-MEL-2 is 32.7 µM (inactive).

Turning to `O=[N+]([O-])/C(C(Cl)=C(Cl)Cl)=C1\NCCS1`, the GI50 was 62.4 µM (inactive) in the assay on IGROV-1; 18.8 µM (inactive) in the assay with K562; 45.7 µM (inactive) with CAKI-1; 36.5 µM (inactive) in the assay on SN12C; 20.1 µM (inactive) in the assay on LOX IMVI; > 100 µM (inactive) in the assay with TK-10. The GI50 in the assay with UACC-62 was 39.7 µM (inactive); with 786-0, 36.1 µM (inactive); in the assay with A498, 26.1 µM (inactive); in the assay on SF-295, > 100 µM (inactive); in the assay on BT-549, 70 µM (inactive); in the assay on HCT-116 it was 43.3 µM (inactive). Further, the GI50 is 19 µM (inactive) in the assay on RPMI-8226; > 100 µM (inactive) in the assay on HOP-62; 30.2 µM (inactive) in the assay with NCI/ADR-RES; 46.9 µM (inactive) with M14; 19.1 µM (inactive) in the assay with CCRF-CEM.

For the compound `O=c1oc2ccccc2n1CCCn1c(=O)oc2ccccc21`, the GI50 in the assay on IGROV-1, with K562, in the assay with CAKI-1, in the assay on SN12C, in the assay on LOX IMVI and with TK-10 was > 100 µM (inactive) throughout. Also, the GI50 in the assay on UACC-62, with 786-0, in the assay with A498, in the assay on SF-295, in the assay on BT-549 and in the assay on HCT-116 was > 100 µM (inactive) each time. Also, the GI50 in the assay on RPMI-8226, with HOP-62, in the assay with NCI/ADR-RES, with M14, in the assay on CCRF-CEM and with SK-MEL-2 was > 100 µM (inactive) throughout.

On to `COc1ccc2nc(-c3ccc(N)cc3)sc2c1`, for which the GI50 with IGROV-1 was 70.5 µM (inactive); in the assay with K562 it was > 100 µM (inactive); with CAKI-1, > 100 µM (inactive); with TK-10, > 100 µM (inactive); with UACC-62 it was > 100 µM (inactive); with 786-0, 43.9 µM (inactive). The GI50 in the assay with A498 was 53.1 µM (inactive); in the assay with SF-295, 43.1 µM (inactive); with BT-549, > 100 µM (inactive); in the assay on HCT-116, > 100 µM (inactive); in the assay with NCI-H522, 23.6 µM (inactive); in the assay on HOP-62, 42.2 µM (inactive). Also, the GI50 was > 100 µM (inactive) in the assay with NCI/ADR-RES, > 100 µM (inactive) in the assay with M14, 4.89 µM (inactive) in the assay with CCRF-CEM and > 100 µM (inactive) with SK-MEL-2.

As for `CC(O)CCCOC(c1ccccc1)(c1ccccc1)c1ccccc1` (stereo unspecified), the GI50 was 15.7 µM (inactive) in the assay on IGROV-1; 22.9 µM (inactive) in the assay on K562; 16 µM (inactive) in the assay with CAKI-1; 16.7 µM (inactive) in the assay with SN12C; 15.2 µM (inactive) with LOX IMVI; 16.6 µM (inactive) in the assay on TK-10. Besides, the GI50 was 13.9 µM (inactive) in the assay on UACC-62; 16.5 µM (inactive) with 786-0; 20.1 µM (inactive) with A498; 13.8 µM (inactive) with SF-295; 13.8 µM (inactive) with HCT-116; 13.7 µM (inactive) in the assay with NCI-H522. Further, the GI50 is 15.2 µM (inactive) in the assay on RPMI-8226; 17.3 µM (inactive) with HOP-62; 11.7 µM (inactive) in the assay with NCI/ADR-RES; 15.5 µM (inactive) in the assay with M14; 16.8 µM (inactive) with MDA-N; 23.3 µM (inactive) in the assay on CCRF-CEM. Also, in the assay on SK-MEL-2, the GI50 was 15.1 µM (inactive).

On to `O=C(O)/C=C/c1ccc2c(c1)CC1(Cc3ccccc3C1)C2`, for which the GI50 with IGROV-1 was 56.4 µM (inactive); in the assay on K562, 47.2 µM (inactive); in the assay with SN12C, 44.5 µM (inactive); in the assay on LOX IMVI, 38.1 µM (inactive); in the assay with TK-10, > 100 µM (inactive); in the assay on UACC-62, > 100 µM (inactive). Moreover, the GI50 with 786-0 was > 100 µM (inactive); in the assay on A498, 75.3 µM (inactive); in the assay on SF-295 it was 36.1 µM (inactive); with HCT-116 it was 23 µM (inactive); in the assay with NCI-H522, 54.5 µM (inactive); in the assay with RPMI-8226, 96.8 µM (inactive). Moreover, the GI50 in the assay on HOP-62 was 49.5 µM (inactive); in the assay on NCI/ADR-RES it was 76.7 µM (inactive); in the assay on M14, 48.1 µM (inactive); in the assay with MDA-N, > 100 µM (inactive); in the assay on CCRF-CEM, 91.2 µM (inactive); in the assay with SK-MEL-2 it was 39.3 µM (inactive).

On to `COc1cc(C(=O)Oc2c(C(C)=O)sc3c2c(=O)n(-c2ccccc2)c(=S)n3-c2ccccc2)cc(OC)c1OC`, for which the GI50 in the assay with IGROV-1 was 21 µM (inactive); in the assay with K562, 33.6 µM (inactive); in the assay with CAKI-1 it was 33.9 µM (inactive); in the assay on SN12C it was 11.9 µM (inactive); with LOX IMVI, 18.7 µM (inactive); in the assay on TK-10, 38.9 µM (inactive). Besides, the GI50 was 23.9 µM (inactive) in the assay with UACC-62; 19.6 µM (inactive) with 786-0; 5.78 µM (inactive) in the assay on A498; 8.3 µM (inactive) in the assay on SF-295; 18.1 µM (inactive) with HCT-116; 1.01 µM (active) in the assay with NCI-H522. Besides, the GI50 with RPMI-8226 is 27 µM (inactive); in the assay on HOP-62 it was 24.4 µM (inactive); with NCI/ADR-RES it was 15.4 µM (inactive); with M14 it was 16.9 µM (inactive); in the assay on MDA-N, 22.8 µM (inactive); in the assay on CCRF-CEM, 15.3 µM (inactive).

As for `CC(=O)O[C@H]1C(=O)[C@@]2(C)[C@H]([C@H](OC(=O)c3ccoc3)[C@]3(O)C[C@H](OC(=O)[C@H](O)[C@@H](NC(=O)c4ccccc4)c4ccccc4)C(C)=C1C3(C)C)[C@]1(OC(C)=O)CO[C@@H]1C[C@@H]2O`, the GI50 in the assay on IGROV-1 is 0.0962 µM (active); in the assay with K562 it was 0.0324 µM (active); in the assay with CAKI-1, 8.18 µM (inactive); in the assay on LOX IMVI, 0.032 µM (active); in the assay with TK-10 it was > 2.99 µM (inactive); in the assay with UACC-62, 0.053 µM (active). Also, the GI50 with 786-0 is 0.38 µM (active); in the assay with A498, 0.811 µM (active); in the assay with SF-295 it was 0.582 µM (active); with BT-549, 0.615 µM (active); in the assay with HCT-116 it was 0.0186 µM (active); with NCI-H522 it was 0.0434 µM (active). In addition, the GI50 in the assay with RPMI-8226 was 0.00904 µM (active); in the assay on HOP-62, 0.206 µM (active); in the assay on NCI/ADR-RES it was > 10.9 µM (inactive); with M14 it was 0.129 µM (active); in the assay on CCRF-CEM, 0.0566 µM (active); in the assay on SK-MEL-2, 0.0448 µM (active).

As to `N#CC(C#N)=C/C=C/c1c(Cl)cccc1Cl`, the GI50 in the assay with IGROV-1 was 2.16 µM (inactive); in the assay with K562 it was 2.55 µM (inactive); with CAKI-1, 1.93 µM (inactive); with SN12C, 1.8 µM (inactive); with LOX IMVI it was 1.73 µM (inactive); with TK-10 it was 2.7 µM (inactive). Moreover, the GI50 in the assay on UACC-62 was 1.5 µM (inactive); with 786-0, 1.71 µM (inactive); with A498, 2.99 µM (inactive); with SF-295, 2.07 µM (inactive); in the assay on HCT-116, 1.34 µM (inactive); in the assay with NCI-H522, 1.65 µM (inactive). The GI50 is 1.78 µM (inactive) with RPMI-8226; 2.74 µM (inactive) with HOP-62; 1.96 µM (inactive) with NCI/ADR-RES; 1.69 µM (inactive) in the assay on M14; 1.62 µM (inactive) in the assay with MDA-N; 1.34 µM (inactive) in the assay with CCRF-CEM. Moreover, the GI50 with SK-MEL-2 was 1.7 µM (inactive).

With `CC1=NN(c2cccc(Cl)c2)C2(C1=Cc1ccc(O)cc1)C(Cl)C(=O)N2c1nc2ccccc2s1` (stereo unspecified), the GI50 with IGROV-1 is 14.1 µM (inactive); in the assay with K562, 18.6 µM (inactive); in the assay on CAKI-1, 27.1 µM (inactive); with LOX IMVI it was 22.1 µM (inactive); with TK-10, 37.7 µM (inactive); in the assay on 786-0, 24.3 µM (inactive). Also, the GI50 with A498 is 13.6 µM (inactive); in the assay on SF-295, 21.5 µM (inactive); in the assay on HCT-116, 15.9 µM (inactive); with NCI-H522, 22.2 µM (inactive); in the assay on RPMI-8226, 17.5 µM (inactive); in the assay on HOP-62, 20.9 µM (inactive). Moreover, the GI50 is 21.4 µM (inactive) in the assay with NCI/ADR-RES; 24.7 µM (inactive) in the assay with M14; 23.3 µM (inactive) in the assay on MDA-N; 28.6 µM (inactive) with CCRF-CEM; 20.4 µM (inactive) in the assay with SK-MEL-2.

`CC(=O)C1=C(C)NC(=C(C#N)C#N)C(C#N)=C1`: the GI50 in the assay with IGROV-1, in the assay with K562, in the assay with CAKI-1, in the assay with SN12C, in the assay with LOX IMVI and in the assay on UACC-62 was > 100 µM (inactive) each time. Moreover, the GI50 with 786-0, in the assay with A498, in the assay on HCT-116, with NCI-H522, in the assay with RPMI-8226 and in the assay on HOP-62 was > 100 µM (inactive) throughout. Further, the GI50 in the assay on NCI/ADR-RES, in the assay with M14, in the assay with MDA-N, in the assay with CCRF-CEM and with SK-MEL-2 was > 100 µM (inactive) each time.
